Assay results reported in ChEMBL document CHEMBL1143699, “Chemical and biological effects of substitution of the 2-position of ring-expanded ('fat') nucleosides containing the imidazo[4,5-e][1,3]diazepine-4,8-dione ring system: the role of electronic and steric factors on glycosidic bond stability and anti-HCV activity” (Bioorg Med Chem, 2007).

How the values were obtained:
[1] = Cytotoxicity against Huh7 cells relative to control; format: cell-based; details: human, huh-7
[2] = system: Hepatitis C virus; test: Antiviral activity against Hepatitis C virus infected Huh7 cells assessed as RNA replicon; format: functional, Hepacivirus hominis, Huh-7

In the case of `COc1ccc(-c2nc3c(=O)nc(N)[nH]c(=O)c3n2[C@@H]2O[C@H](CO)[C@@H](O)[C@H]2O)cc1`, the Activity [1] is reported as 109.8% and the Inhibition [2] is reported as 9.5%.
With `COc1cccc(-c2nc3c(=O)nc(N)[nH]c(=O)c3n2[C@@H]2O[C@H](CO)[C@@H](O)[C@H]2O)c1` the Activity [1] was 97.2% and the Inhibition [2] was 31.8%.
In the case of `Nc1nc(=O)c2nc(-c3ccc(F)cc3)n([C@@H]3O[C@H](CO)[C@@H](O)[C@H]3O)c2c(=O)[nH]1`, the Activity [1] is reported as 108.6% and the Inhibition [2] is reported as 0%.
